Read-outs that look alike come from different tables or passages of the source.
Columns and labels:
[1] = Liver microsomal metabolic stability, mouse; type: in vitro ADME; conditions: 0.5 mg/mL microsomes, 1 μM compound, NADPH; for half-life at 1 μM: liver microsomes, read-out: Liver microsomal stability T1/2
Experimental: (§1) The reaction was stopped with tinidazole-containing acetonitrile at 0 min, 5 min, 10 min and 30 min, respectively. After vortexing for 10 min and centrifuging at 15,000 rmp for 10 min, 50 μL of the supernatant was injected into a 96-well plate. The metabolic stability of the compound was calculated by determining the relative reduction of the drug, calculated as half-life T1/2.

[2] = Liver microsomal metabolic stability, human; type: in vitro ADME; conditions: 0.5 mg/mL microsomes, 1 μM compound, NADPH; for half-life at 1 μM: liver microsomes, read-out: Liver microsomal stability T1/2
Experimental: as §1

[3] = Liver microsomal metabolic stability, dog; type: in vitro ADME; conditions: 0.5 mg/mL microsomes, 1 μM compound, NADPH; for half-life at 1 μM: liver microsomes, read-out: Liver microsomal stability T1/2
Experimental: as §1

[4] = Liver microsomal metabolic stability, rat; type: in vitro ADME; conditions: 0.5 mg/mL microsomes, 1 μM compound, NADPH; for half-life at 1 μM: liver microsomes, read-out: Liver microsomal stability T1/2
Experimental: as §1

[5] = Liver microsomal stability, comparisons in words across species; type: in vitro ADME; conditions: for stability of different kinds of liver microsomes (in words): different species, versus the comparative compounds
Experimental: as §1

[6] = target: T1, ERK1/2 kinase; assay: ERK1/2 kinase (Carna) inhibitory activity, Caliper mobility shift; type: biochemical; conditions: for IC50: numeric values, read-out: ERK½ IC50
T1 construct: fused on or other part: Carna's ERK products carry a GST tag by vendor knowledge
Experimental: (1) Preparation of 1×Kinase buffer; (2) preparation of compound concentration gradient: the initial test concentration of the tested compound was 10 μM, which was 3-fold diluted to 10 concentrations, and a duplicate test was conducted, and then the tested compound was diluted in a 96 well plate to a 100-fold final concentration of 10 different concentrations of solution. […] Log (inhibitor) vs. response—Variable slope of the analysis software GraphPad Prism 5 was used to fit the dose-effect curve to obtain the IC50 value of each compound on the enzyme activity.
2. […] (A<10 nM, 10 nM≤B<200 nM, C≥200 nM)

[7] = tested on: Colo-205 cells; assay: Colo-205 tumor cell proliferation, CCK-8, 72 hours; type: cell-based; conditions: for IC50: 72 hours, CCK-8, numeric values, read-out: Colo-205 IC50; for cell proliferation inhibitory activity (in words): Colo-205
Experimental: 1. Test method: Colo-205 cells (ATCC) in logarithmic growth phase were inoculated into a 96-well culture plate at an appropriate density with 90 μL per well. After overnight culture, different concentrations of the compound were added and acted for 72 hours, and a solvent control group (negative control) was set. After the compound was acted on cells for 72 hours, the effect of the compound on cell proliferation was detected by the cell counting kit CCK-8 (Dojindo), and 10 μL of CCK-8 reagent was added to each well. After the plate was placed in a 37° C. incubator for 2 to 4 hours, a full-wavelength microplate reader SpectraMax 190 was adopted for obtaining the readings with a measured wavelength of 450 nm. […] The IC50 value was obtained by four-parameter regression with the software attached to the microplate reader.

[8] = target: T2, CYP1A2 (Homo sapiens, UniProt P05177); assay: Direct inhibition test (DI test) in human liver microsomes, CYP1A2; conditions: microsomes
T2 sequence (P05177 1-516): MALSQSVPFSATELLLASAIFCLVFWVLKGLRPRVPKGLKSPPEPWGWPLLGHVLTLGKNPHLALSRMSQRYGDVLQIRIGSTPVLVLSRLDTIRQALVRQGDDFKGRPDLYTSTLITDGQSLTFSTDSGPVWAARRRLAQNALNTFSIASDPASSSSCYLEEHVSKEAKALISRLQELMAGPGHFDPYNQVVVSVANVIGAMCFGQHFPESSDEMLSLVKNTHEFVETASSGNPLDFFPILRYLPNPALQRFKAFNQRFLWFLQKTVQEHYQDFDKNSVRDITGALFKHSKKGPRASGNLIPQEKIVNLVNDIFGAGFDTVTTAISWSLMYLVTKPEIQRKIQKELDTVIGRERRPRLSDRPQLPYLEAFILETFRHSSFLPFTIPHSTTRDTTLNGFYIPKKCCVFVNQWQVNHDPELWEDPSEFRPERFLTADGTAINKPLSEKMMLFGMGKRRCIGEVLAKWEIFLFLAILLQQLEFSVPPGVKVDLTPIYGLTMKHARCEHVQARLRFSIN
Experimental: (2) Direct inhibition test (DI test): A system containing 100 μL of human liver microsomes (final concentration of 0.2 mg/mL) was subjected to a direct inhibition incubation, and the system contained NADPH (final concentration of 1 mM), 10 μM compound, positive inhibitor cocktail (10 μM ketoconazole, 10 μM quinidine, 100 μM sulfaphenazole, 10 μM α-naphthoflavone, 1,000 μM tranylcypromine), negative control (BPS of 0.1% DMSO), and mixed probe substrates (10 μM midazolam, 100 μM testosterone, 10 μM dextromethorphan, […], 100 μM phenacetin, 100 μM mephenytoin). After 20 minutes of incubation, the reaction was stopped. The relative activity of the enzyme was calculated by measuring the relative production of metabolites.

[9] = tested on: Colo-205 transplanted tumor; assay: Growth inhibition of nude mice Colo-205 transplanted tumor; type: in vivo; conditions: for effect on the tumor weight (in words) / tumor growth of Colo-205 transplanted tumor nude mice (in words): dose of 50 mg/kg or 25 mg/kg
Experimental: The tumor tissue in the vigorous growth phase was cut into about 1.5 mm^3 and inoculated subcutaneously in the right axilla of nude mice under sterile conditions. The diameter of subcutaneous transplanted tumors in nude mice was measured with a vernier caliper, and the mice were randomly divided into groups when the average tumor volume reached about 130 mm^3. The embodiment compounds (injection water containing 1% Tween 80 were configured to a desired concentration for later use) were orally administered daily at a given dose for three consecutive weeks, and the solvent control group was administered with the same amount of solvent. During the whole test, the diameter of transplanted tumor was measured twice a week, and the mice were weighed at the same time. The calculation formula of tumor volume (TV) is expressed as TV=1/2×a×b^2, wherein a and b represent length and width, respectively. The relative tumor volume (RTV) was calculated according to the measurement results, and the calculation formula is RTV=Vt/V0, wherein V0 is the tumor volume measured when administered in separate cages (i.e., d0), and Vt is the tumor volume at the time of each measurement.

[10] = In-vivo pharmacokinetic parameters in SD rats
Experimental: (§2) Six male SPF grade SD rats or Balb-c mice (Shanghai Sipple-Bikai Laboratory Animal) were divided into two groups, and the tested compounds were prepared into appropriate solutions or suspensions; one group was administered intravenously (with a dose of 1 mg/kg), and the other group was administered orally (with a dose of 5 mg/kg). Blood samples were collected by jugular vein puncture, and each sample was collected with a volume of about 0.2 mL/time point, and heparin sodium was used for anticoagulation. The time points of blood collection were listed below: 5, 15 and 30 min […], 1, 2, 4, 6, 8 and 24 h after administration; the collected blood samples were placed on ice and centrifuged to separate plasma (centrifugation conditions: 8,000 rpm, 6 min, 2 to 8° C.), and the collected plasma was stored at −80° C. before analysis. Plasma samples were analyzed by LC-MS/MS.
(§3) The pharmacokinetic parameters such as AUC0-t, AUC0-∞, MRT0-∞, Cmax, Tmax, T1/2 and Vd of the tested compounds and their mean values and standard deviations were calculated by the pharmacokinetic calculation software WinNonlin5.2 non-compartmental model according to the plasma concentration data. In addition, the bioavailability (F) was calculated by the following formula.
(§4) For samples with concentrations below the lower limit of quantitation, while pharmacokinetic parameter calculations were performed, samples sampled before Cmax was reached should be calculated as a zero value and samples sampled after Cmax was reached should be calculated as below limit of quantitation (BLQ).

[11] = In-vivo pharmacokinetic parameters in mice; design: species or system Balb-c mice
Experimental: as §2, §3, §4

[12] = male, rat, plasma, 1 mg/kg, IV, 1 mpk
[13] = male, rat, plasma, 5 mg/kg, PO, 5 mpk
[14] = male, Balb-c, mouse, plasma, IV, 1 mg/kg
[15] = male, Balb-c, mouse, plasma, PO, 5 mg/kg

COc1cc(F)cc([C@@H](CO)NC(=O)[C@@H](C)N2Cc3ccc(-c4nc(NC5CCOCC5)ncc4Cl)cc3C2=O)c1 [Comparative compound 5, (R)-2-(6-(5-Chloro-2-((tetrahydro-2H-pyran-4-yl)amino)pyrimidin-4-yl)-1-oxoisoindolin-2-yl)-N—((S)-1-(3-fluoro-5-methoxyphenyl)-2-hydroxyethyl)propanamide, reference compound]
half-life at 1 μM [1]: 15 min | half-life at 1 μM [2]: 3 min | half-life at 1 μM [3]: 41 min | half-life at 1 μM [4]: 3 min

C[C@H](C(=O)N[C@H](CO)c1cccc(Cl)c1)N1Cc2ccc(-c3nc(NC4CCOCC4)ncc3Cl)nc2C1=O [Embodiment 21]
stability of different kinds of liver microsomes (in words) [5]: significant advantages | half-life at 1 μM [1]: 234 min | half-life at 1 μM [2]: 62 min | half-life at 1 μM [3]: 78 min | IC50 [6]: 5.3 nM | half-life at 1 μM [4]: 13 min | IC50 ([7]; Homo sapiens, COLO 205): 90.9 nM

Cc1cccc([C@@H](CO)NC(=O)[C@@H](C)N2Cc3ccc(-c4nc(NC5CCOCC5)ncc4F)c(F)c3C2=O)c1 [Embodiment 31]
stability of different kinds of liver microsomes (in words) [5]: significant advantages | IC50 [8]: > 10000 nM | Liver microsomal stability T1/2 [1]: 17 min | Liver microsomal stability T1/2 [2]: 13 min | Liver microsomal stability T1/2 [3]: 122 min | enzyme inhibitory activity (in words) [6]: extremely strong enzyme inhibitory activity | IC50 [6]: 0.9 nM | effect on the tumor weight (in words) [9]: no significant effect on the tumor weight | tumor growth of Colo-205 transplanted tumor nude mice (in words) [9]: significantly inhibited the tumor growth | Liver microsomal stability T1/2 [4]: 17 min | IC50 [7]: 17.4 nM | cell proliferation inhibitory activity (in words) [7]: strong cell proliferation inhibitory activity

COc1cc(F)cc([C@@H](CO)NC(=O)[C@@H](C)N2Cc3ccc(-c4nc(NC5CCOCC5)ncc4Cl)c(F)c3C2=O)c1 [Embodiment 33]
stability in liver microsomes (in words) ([5]; mouse, rat and human, compared with comparative compound 5): significantly improved | IC50 [8]: > 10000 nM | Liver microsomal stability T1/2 [1]: 10 min | Liver microsomal stability T1/2 [2]: 18 min | Liver microsomal stability T1/2 [3]: 51 min | enzyme inhibitory activity (in words) [6]: extremely strong enzyme inhibitory activity | IC50 [6]: 0.9 nM | Liver microsomal stability T1/2 [4]: 17 min | IC50 [7]: 14.1 nM | cell proliferation inhibitory activity (in words) [7]: strong cell proliferation inhibitory activity

C[C@H](C(=O)N[C@H](CO)c1cccc(Cl)c1)N1Cc2ccc(-c3nc(NC4CCOCC4)ncc3Cl)c(F)c2C1=O [Embodiment 34]
stability of different kinds of liver microsomes (in words) [5]: significant advantages | Liver microsomal stability T1/2 [1]: 12 min | Liver microsomal stability T1/2 [2]: 18 min | Liver microsomal stability T1/2 [3]: 75 min | IC50 [6]: 0.8 nM | Liver microsomal stability T1/2 [4]: 19 min | IC50 [7]: 34.3 nM | cell proliferation inhibitory activity (in words) [7]: strong cell proliferation inhibitory activity

C[C@H](C(=O)N[C@H](CO)c1cccc(Cl)c1)N1Cc2ccc(-c3nc(NC4CCOCC4)ncc3F)c(F)c2C1=O [Embodiment 37]
stability of different kinds of liver microsomes (in words) [5]: significant advantages | F ([10]; PO 5 mpk vs IV 1 mpk): 17% | AUC(0-inf) [10, 12]: 0.538 µM·h | AUC(0-t) [10, 12]: 0.536 µM·h | MRT inf [10, 12]: 18 min | clearance [10, 12]: 54 mL/min/kg | half-life [10, 12]: 48 min | Vd ([10]; male, rat, plasma, 1 mg/kg, IV, 1 mpk, read-out: Vss): 0.8 L/kg | AUC(0-inf) [10, 13]: 0.452 µM·h | AUC(0-t) [10, 13]: 0.446 µM·h | Cmax [10, 13]: 396 nM | Tmax [10, 13]: 18 min | half-life [10, 13]: 66 min | Liver microsomal stability T1/2 [1]: 12 min | Liver microsomal stability T1/2 [2]: 11 min | F ([11]; PO 5 mg/kg vs IV 1 mg/kg): 54% | AUC(0-inf) [11, 14]: 0.586 µM·h | AUC(0-t) [11, 14]: 0.583 µM·h | MRT inf [11, 14]: 18 min | clearance [11, 14]: 50 mL/min/kg | half-life [11, 14]: 48 min | Vd ([11]; male, Balb-c, mouse, plasma, IV, 1 mg/kg, read-out: Vss): 0.9 L/kg | AUC(0-inf) [11, 15]: 1.58 µM·h | AUC(0-t) [11, 15]: 1.57 µM·h | Cmax [11, 15]: 1680 nM | Tmax [11, 15]: 18 min | half-life [11, 15]: 66 min | Liver microsomal stability T1/2 [3]: 27 min | IC50 [6]: < 1 nM | T/C ([9]; 50 mg/kg, qdx21, po): 28.3% | Initial weight (D0) ([9]; 50 mg/kg, qdx21, po, D0): 23.3 g | Terminal weight (D21) ([9]; 50 mg/kg, qdx21, po, D21): 24.5 g | Initial tumor volume ([9]; 50 mg/kg, qdx21, po, initial): 95 ± 19 mm^3 | Terminal tumor volume ([9]; 50 mg/kg, qdx21, po, terminal): 285 ± 137 mm^3 | effect on the tumor weight (in words) [9]: no significant effect on the tumor weight | tumor growth of Colo-205 transplanted tumor nude mice (in words) [9]: significantly inhibited the tumor growth | Liver microsomal stability T1/2 [4]: 14 min | IC50 [7]: 4.4 nM | cell proliferation inhibitory activity (in words) [7]: strong cell proliferation inhibitory activity
